Values of other authors as cited in PMC11887511 (Crystal Growth & Design, 2025).

Details: no reference given

For `O=C(O)CNCC(=O)O` [IDA, iminodiacetic acid], the pKa1 is listed as 2.12, the pKa2 is listed as 2.90 and the “pKa[base]” value is listed as 9.63.
